Assay results reported in patent US12599561B2, “Localized immunosuppression of allografts for peripheral nerve repair” (UNIVERSITY OF WYOMING, priority 2018, dated 2026).

Assays:
[1] = system: DRGs, motor neurons, and Schwann cells; settings: 72 h
Protocol: It is contemplated that delivery of immunosuppressive agents function within a favorable therapeutic window. PNs are comprised of three major nervous system cell types, motor neurons, sensory neurons, and Schwann cells. […] FIG. 1B illustrates data regarding the toxicity of tacrolimus to DRGs, motor neurons, and Schwann cells. FIG. 1C illustrates data regarding the toxicity of prednisolone to DRGs, motor neurons, and Schwann cells.
Cells (DRGs, motor neurons, and Schwann cells) were cultured for 72 hours in various concentration of the immunosuppressive drugs and viability was evaluated using the Alamar blue viability assay. ISV's were diluted into media using a maximum of 1% dimethylsulfoxide (DMSO).
FIG. 2B illustrates data regarding the viability of DRGs, motor neurons, and Schwann cells cultured in about 10 μM tracrolimus with differing concentrations of prednisolone.

immune cells = settings: cited from earlier work

SMILES | Measures in vitro tolerated concentrations on PN cells [1] [µM] | dose tolerated by the cells (up to) [1] | effective dose for inhibiting activation and proliferation of immune cells (immune cells) | in vitro effective concentration on immune cells (immune cells) [nM]
C[C@]12C=CC(=O)C=C1CC[C@@H]1[C@@H]2[C@@H](O)C[C@@]2(C)[C@H]1CC[C@]2(O)C(=O)CO [Prednisolone, prednisolone] | 200 | about 200 μM | greater than 240 μM | 240
C=CC[C@@H]1/C=C(\C)C[C@H](C)C[C@H](OC)[C@H]2O[C@@](O)(C(=O)C(=O)N3CCCC[C@H]3C(=O)O[C@H](/C(C)=C/[C@@H]3CC[C@@H](O)[C@H](OC)C3)[C@H](C)[C@@H](O)CC1=O)[C@H](C)C[C@@H]2OC [Tacrolimus, tacrolimus] | 10 to 25 | 10 to 25 µM | 50 to 100 µM | 0.5 to 1.0
